Laboratory results as given in patent US6358885B1, “Substituted phenylheterocyclic herbicides” (Mississippi State University, priority 1992, dated 2002).

Assays:
purple nutsedge = assay: Test B preemergence/postemergence greenhouse plant response rating 0 to 10; assay type: in vivo, Cyperus rotundus; conditions: 0 to 10 scale
Method in brief: (§1)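 Postemergence treatment of plants two to eighteen cm tall ran alongside preemergence treatment of planted seed, each using compound in a non-phytotoxic solvent.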

rice [1] = assay: as above; assay type: in vivo, Oryza sativa; conditions: 0 to 10 scale
Method in brief: as §1

barnyardgrass = assay: Test C flood test plant response rating 0 to 100; assay type: in vivo, Echinochloa crus-galli
Method in brief: (§2)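 Compounds in non-phytotoxic solvent applied preemergence to sandy loam one day after planting, postemergence at the 1–4 leaf stage, or to ~2.5 cm floodwater over silt loam.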

umbrella sedge = assay: Test C flood test plant response rating 0 to 100; assay type: in vivo, Cyperus difformis
Method in brief: as §2

corn = assay: Test C preemergence/postemergence greenhouse plant response rating 0 to 100; assay type: in vivo, Zea mays; conditions: POSTEMERGENCE
Method in brief: as §2

cocklebur = assay: Test B preemergence/postemergence greenhouse plant response rating 0 to 10; assay type: in vivo, Xanthium pensylvanicum; conditions: for Plant response rating, Cocklebur: 0 to 10 scale
Method in brief: as §1

lambsquarters = assay: as above; assay type: in vivo, Chenopodium album; conditions: 0 to 10 scale
Method in brief: as §1

crabgrass = assay: as above; assay type: in vivo, Digitaria spp.; conditions: for Plant response rating, Crabgrass: 0 to 10 scale
Method in brief: as §1

barley = assay: as above; assay type: in vivo, Hordeum vulgare; conditions: for Plant response rating, Barley: 0 to 10 scale
Method in brief: as §1

bedstraw = assay: as above; assay type: in vivo, Galium aparine; conditions: POSTEMERGENCE
Method in brief: as §1

sugar beet = assay: as above; assay type: in vivo, Beta vulgaris; conditions: 0 to 10 scale
Method in brief: as §1

sorghum = assay: Test C preemergence/postemergence greenhouse plant response rating 0 to 100; assay type: in vivo, Sorghum bicolor; conditions: POSTEMERGENCE
Method in brief: as §2

morningglory = assay: as above; assay type: in vivo, Ipomoea hederacea; conditions: POSTEMERGENCE
Method in brief: as §2

rape = assay: Test B preemergence/postemergence greenhouse plant response rating 0 to 10; assay type: in vivo, Brassica napus; conditions: 0 to 10 scale
Method in brief: as §1

pigweed = assay: Test C preemergence/postemergence greenhouse plant response rating 0 to 100; assay type: in vivo, Amaranthusretroflexus; conditions: POSTEMERGENCE
Method in brief: as §2

blackgrass = assay: Test B preemergence/postemergence greenhouse plant response rating 0 to 10; assay type: in vivo, Alopecurus myosuroides; conditions: for Plant response rating, Blackgrass: 0 to 10 scale
Method in brief: as §1

rice [2] = assay: Test C flood test plant response rating 0 to 100; assay type: in vivo, Oryza sativa
Method in brief: as §2

soybean = assay: Test B preemergence/postemergence greenhouse plant response rating 0 to 10; assay type: in vivo, Glycine max; conditions: 0 to 10 scale
Method in brief: as §1

[3] = POSTEMERGENCE section, flood test, Rate 1 g/ha
[4] = Rate 16 g/ha, under POSTEMERGENCE head (flood test species)
[5] = flood test species listed under POSTEMERGENCE, 62 g/ha, 0 to 100 scale
[6] = POSTEMERGENCE section, flood test, Rate 4 g/ha

CCCN1C(=O)COc2cc(F)c(-c3nn4c(c3Cl)CCCC4)cc21 [Compound 32]
50: Plant response rating, Corn (corn; 62 g/ha, 0 to 100 scale) | Plant response rating (0 to 100), Sorghum (sorghum; Rate 16 g/ha) | Plant response rating (0 to 100), Morningglory (morningglory; Rate 1 g/ha)
3: Plant response rating, Crabgrass (crabgrass; POSTEMERGENCE, Rate 10 g/ha) | Plant response rating, Crabgrass (crabgrass; PREEMERGENCE, Rate 50 g/ha)
4: Plant response rating, Nutsedge (purple nutsedge; POSTEMERGENCE, Rate 50 g/ha) | Plant response rating, Rice (rice [1]; POSTEMERGENCE, Rate 10 g/ha) | Plant response rating, Blackgrass (blackgrass; POSTEMERGENCE, Rate 10 g/ha)
20: Plant response rating (0 to 100), Umbrella sedge (umbrella sedge; [4]) | Plant response rating (0 to 100), Corn (corn; Rate 1 g/ha) | Plant response rating (0 to 100), Rice Japonica (rice [2]; [6])
9: Plant response rating, Cocklebur (cocklebur; POSTEMERGENCE, Rate 10 g/ha)
40: Plant response rating (0 to 100), Corn (corn; Rate 16 g/ha) | Plant response rating (0 to 100), Sorghum (sorghum; Rate 4 g/ha)
10: Plant response rating (0 to 10 scale), Cocklebur (cocklebur; POSTEMERGENCE, Rate 50 g/ha) | Plant response rating, Lambsquarter (lambsquarters; POSTEMERGENCE, Rate 10 g/ha) | Plant response rating, Lambsquarter (lambsquarters; POSTEMERGENCE, Rate 50 g/ha) | Plant response rating, Lambsquarter (lambsquarters; PREEMERGENCE, Rate 50 g/ha) | Plant response rating (0 to 10 scale), Bedstraw (bedstraw; Rate 50 g/ha) | Plant response rating, Sugar beet (sugar beet; POSTEMERGENCE, Rate 10 g/ha) | Plant response rating, Sugar beet (sugar beet; POSTEMERGENCE, Rate 50 g/ha) | Plant response rating, Rape (rape; POSTEMERGENCE, Rate 50 g/ha)
1: Plant response rating, Rice (rice [1]; PREEMERGENCE, Rate 50 g/ha)
75: Plant response rating Rice Japonica (rice [2]; [5])
100: Plant response rating (0 to 100), Barnyardgrass (barnyardgrass; [4]) | Plant response rating, Barnyardgrass (barnyardgrass; [5]) | Plant response rating, Morningglory (morningglory; 62 g/ha, 0 to 100 scale) | Plant response rating (0 to 100), Morningglory (morningglory; Rate 16 g/ha) | Plant response rating Pigweed (pigweed; 62 g/ha, 0 to 100 scale) | Plant response rating (0 to 100), Pigweed (pigweed; Rate 4 g/ha) | Plant response rating (0 to 100), Pigweed (pigweed; Rate 16 g/ha)
70: Plant response rating (0 to 100), Morningglory (morningglory; Rate 4 g/ha)
6: Plant response rating, Rape (rape; POSTEMERGENCE, Rate 10 g/ha)
60: Plant response rating Umbrella sedge (umbrella sedge; [5]) | Plant response rating, Sorghum (sorghum; 62 g/ha, 0 to 100 scale)
30: Plant response rating (0 to 100), Barnyardgrass (barnyardgrass; [3]) | Plant response rating (0 to 100), Corn (corn; Rate 4 g/ha) | Plant response rating (0 to 100), Sorghum (sorghum; Rate 1 g/ha) | Plant response rating (0 to 100), Rice Japonica (rice [2]; [4])
7: Plant response rating, Rice (rice [1]; POSTEMERGENCE, Rate 50 g/ha) | Plant response rating, Sugar beet (sugar beet; PREEMERGENCE, Rate 50 g/ha) | Plant response rating, Soybean (soybean; POSTEMERGENCE, Rate 10 g/ha)
0: Plant response rating, Nutsedge (purple nutsedge; PREEMERGENCE, Rate 50 g/ha) | Plant response rating (0 to 100), Umbrella sedge (umbrella sedge; [3]) | Plant response rating (0 to 100), Umbrella sedge (umbrella sedge; [6]) | Plant response rating, Cocklebur (cocklebur; PREEMERGENCE, Rate 10 g/ha) | Plant response rating, Barley (barley; PREEMERGENCE, Rate 10 g/ha) | Plant response rating, Barley (barley; PREEMERGENCE, Rate 50 g/ha) | Plant response rating (0 to 100), Rice Japonica (rice [2]; [3]) | Plant response rating, Soybean (soybean; PREEMERGENCE, Rate 50 g/ha)
95: Plant response rating (0 to 100), Pigweed (pigweed; Rate 1 g/ha)
2: Plant response rating, Nutsedge (purple nutsedge; POSTEMERGENCE, Rate 10 g/ha) | Plant response rating, Crabgrass (crabgrass; PREEMERGENCE, Rate 10 g/ha) | Plant response rating, Rape (rape; PREEMERGENCE, Rate 50 g/ha)
5: Plant response rating, Cocklebur (cocklebur; PREEMERGENCE, Rate 50 g/ha) | Plant response rating (0 to 10 scale), Crabgrass (crabgrass; POSTEMERGENCE, Rate 50 g/ha) | Plant response rating, Barley (barley; POSTEMERGENCE, Rate 10 g/ha) | Plant response rating (0 to 10 scale), Barley (barley; POSTEMERGENCE, Rate 50 g/ha) | Plant response rating (0 to 10 scale), Blackgrass (blackgrass; POSTEMERGENCE, Rate 50 g/ha) | Plant response rating, Blackgrass (blackgrass; PREEMERGENCE, Rate 10 g/ha) | Plant response rating, Blackgrass (blackgrass; PREEMERGENCE, Rate 50 g/ha)
8: Plant response rating, Bedstraw (bedstraw; Rate 10 g/ha, 0 to 10 scale) | Plant response rating, Soybean (soybean; POSTEMERGENCE, Rate 50 g/ha)
55: Plant response rating (0 to 100), Barnyardgrass (barnyardgrass; Rate 4 g/ha, under POSTEMERGENCE head (flood test species))
